Reference: the Kinase Knowledgebase extract (Sharma et al. 2016)

Target: ROCK2 (human) (UniProt O75116)
Test: Enzyme Assay

Sequence of ROCK2 (human) (O75116 whole entry, looked up): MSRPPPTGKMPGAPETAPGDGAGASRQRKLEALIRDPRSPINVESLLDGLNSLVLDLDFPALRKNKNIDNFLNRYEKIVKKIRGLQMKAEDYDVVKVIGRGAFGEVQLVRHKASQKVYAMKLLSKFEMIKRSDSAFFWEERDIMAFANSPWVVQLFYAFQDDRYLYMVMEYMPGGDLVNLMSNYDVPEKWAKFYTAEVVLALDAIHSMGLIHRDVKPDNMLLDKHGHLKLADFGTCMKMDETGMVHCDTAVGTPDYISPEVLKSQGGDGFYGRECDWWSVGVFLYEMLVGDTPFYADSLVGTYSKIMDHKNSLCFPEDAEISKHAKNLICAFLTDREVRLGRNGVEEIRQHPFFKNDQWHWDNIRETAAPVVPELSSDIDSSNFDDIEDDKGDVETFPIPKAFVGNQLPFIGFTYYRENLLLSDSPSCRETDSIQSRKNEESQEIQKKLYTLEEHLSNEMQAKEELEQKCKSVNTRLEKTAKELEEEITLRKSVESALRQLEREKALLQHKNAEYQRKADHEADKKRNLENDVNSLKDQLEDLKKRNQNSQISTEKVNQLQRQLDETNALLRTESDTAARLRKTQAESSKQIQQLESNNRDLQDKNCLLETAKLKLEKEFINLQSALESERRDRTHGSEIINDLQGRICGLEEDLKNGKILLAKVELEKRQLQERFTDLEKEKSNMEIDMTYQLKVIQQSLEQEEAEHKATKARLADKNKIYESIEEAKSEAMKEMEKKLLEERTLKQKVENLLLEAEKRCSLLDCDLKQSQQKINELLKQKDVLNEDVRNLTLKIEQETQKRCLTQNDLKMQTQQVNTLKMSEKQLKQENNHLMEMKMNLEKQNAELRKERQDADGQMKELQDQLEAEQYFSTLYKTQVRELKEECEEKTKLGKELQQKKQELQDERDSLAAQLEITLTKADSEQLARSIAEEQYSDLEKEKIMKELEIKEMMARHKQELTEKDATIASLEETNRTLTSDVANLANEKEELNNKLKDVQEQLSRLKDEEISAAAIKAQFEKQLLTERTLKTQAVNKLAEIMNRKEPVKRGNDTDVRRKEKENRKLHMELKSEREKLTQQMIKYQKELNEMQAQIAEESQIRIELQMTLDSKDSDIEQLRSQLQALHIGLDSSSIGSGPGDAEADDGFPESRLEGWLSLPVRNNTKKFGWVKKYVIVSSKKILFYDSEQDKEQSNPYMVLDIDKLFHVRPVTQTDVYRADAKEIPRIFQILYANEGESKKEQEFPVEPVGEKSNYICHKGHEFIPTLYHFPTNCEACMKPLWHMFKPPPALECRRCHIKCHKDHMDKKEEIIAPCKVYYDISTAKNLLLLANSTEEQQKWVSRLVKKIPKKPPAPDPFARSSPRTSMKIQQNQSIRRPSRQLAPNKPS

| Structure (SMILES) | IC50 [nM] |
| --- | --- |
| NCc1ccc(C(=O)Nc2ccncc2F)cc1-c1cccc(C(=O)Nc2cccc(SC3CCOC3=O)c2)c1 (stereo unspecified) | < 100 |
| CC1CC(Sc2ccc(NC(=O)c3cccc(-c4cc(C(=O)Nc5ccncc5F)ccc4CN)c3)cc2)C(=O)O1 (stereo unspecified) | < 100 |
| NCc1ccc(C(=O)Nc2ccncc2F)cc1-c1cccc(C(=O)Nc2ccc(SC3CCOC3=O)cc2F)c1 (stereo unspecified) | < 100 |
| NCc1ccc(C(=O)Nc2ccncc2F)cc1-c1cccc(NC(=O)c2ccc(SC3CCOC3=O)cc2)c1 (stereo unspecified) | < 100 |
| CN(c1ccc(NC(=O)c2cccc(-c3cc(C(=O)Nc4ccncc4F)ccc3CN)c2)cc1)C1CCOC1=O (stereo unspecified) | < 100 |
| NCc1ccc(C(=O)Nc2ccncc2F)cc1-c1cccc(C(=O)Nc2ccc(SC3COC(=O)C3)cc2)c1 (stereo unspecified) | < 100 |
| NCc1ccc(C(=O)Nc2ccncc2F)cc1-c1cccc(C(=O)Nc2ccc(NC3CCOC3=O)cc2)c1 (stereo unspecified) | < 100 |
| NCc1ccc(C(=O)Nc2ccncc2F)cc1-c1cccc(C(=O)Nc2ccc(SC3CCOC3=O)cc2)c1 (stereo unspecified) | < 100 |
| NCc1ccc(C(=O)Nc2ccncc2F)cc1-c1cccc(C(=O)Nc2ccc(SCC3CCOC3=O)cc2)c1 (stereo unspecified) | < 100 |
| NCc1ccc(C(=O)Nc2ccncc2F)cc1-c1cccc(C(=O)Nc2ccc(OC3CCOC3=O)cc2)c1 (stereo unspecified) | < 100 |
| NCc1ccc(C(=O)Nc2ccncc2F)cc1-c1cccc(C(=O)Nc2ncc(NC3CCOC3=O)s2)c1 (stereo unspecified) | < 100 |
| NCc1ccc(C(=O)Nc2ccncc2)cc1-c1cccc(NC(=O)c2ccc(SC3CCOC3=O)cc2)c1 (stereo unspecified) | < 100 |
| CC1(C)COC(=O)C1Sc1ccc(NC(=O)c2cccc(-c3cc(C(=O)Nc4ccncc4F)ccc3CN)c2)cc1 (stereo unspecified) | < 100 |
| Cc1cc(NC2CCOC2=O)ccc1NC(=O)c1cccc(-c2cc(C(=O)Nc3ccncc3F)ccc2CN)c1 (stereo unspecified) | < 100 |
| NCc1ccc(C(=O)Nc2ccncc2F)cc1-c1cccc(NC(=O)c2ccc(NC3CCOC3=O)cc2)c1 (stereo unspecified) | < 100 |
| NCc1ccc(C(=O)Nc2ccncc2F)cc1-c1cccc(C(=O)Nc2ccc(CNC3CCOC3=O)cc2)c1 (stereo unspecified) | < 100 |
